{
  "source": "patent US12295973B2",
  "about": "(Fred Hutchinson Cancer Center, priority 2017, dated 2025)",
  "type_in_all_cases": "in vivo, mouse",
  "key": {"LT-HSCs [1]": {"test_system": "LT-HSCs", "assay": "Cell apoptosis by AnnexinV/DAPI staining after radiation exposure", "conditions": "vs vehicle", "source_text": "(§1) To further validate this hypothesis, two additional models were used to force HSCs out of their quiescence phase, Poly I:C and sub-lethal dose of total body irradiation (SL-TBI)^35,42,43. To eliminate any potential effects of downstream sex steroids on HSCs, all cohorts of mice in these studies had been surgically castrated."}, "LT-HSCs [2]": {"test_system": "LT-HSCs", "assay": "Cell cycle status of LT-HSCs in Poly I:C and SL-TBI models, surgically castrated mice", "description": "as §1\nReagents: Degarelix (as acetate), a LHRH-Ant (Firmagon), was resuspended in sterile water for injection and administered S.C. to mice at a dose of 40 mg/kg. To evaluate the radiomitigative effect of LHRH-Ant on survival, mice were treated subcutaneously (S.C.) with a single injection of the LHRH-Ant or a saline control solution (PBS). Degarelix was purchased from the Memorial Sloan-Kettering Cancer Center Pharmacy. […] LH from human pituitary (SIGMA) was resuspended in PBS for in vitro studies. MDV3100 (selleckchem) was resuspended in a mixture of 45% PBS, 45% PEG and 10% DMSO and administered daily to mice by oral gavage at a dose of 10 mg/kg. 5-FU (InvivoGen) was administered to mice intraperitoneally (I.P.) at a dose of 150 mg/kg once every 7 days consecutively for 3 times as previously described^34,47,49. […]"}, "[3]": {"test_system": "committed hematopoietic progenitor cells", "assay": "Colony-forming unit activity of BM from L-TBI mice", "conditions": "day 7 after L-TBI", "description": "To investigate the specific regenerative effects mediated by LHRH-Ant treatment on the hematopoietic stem and progenitor cell (HSPC) compartment, BM were analyzed at several time points after L-TBI. […] To determine hematopoietic functional potential, colony-forming unit activity was next quantified to determine the effects of LHRH-Ant on the recovery of committed hematopoietic progenitor cells. […] Consistent with these functional findings, on day 14 after L-TBI, expansion of LSKs as well as their downstream progenitors in mice given LHRH-Ant were found (FIGS. 2F, 2G). […] However, given the changes in HSC phenotype after radiation, the standard competitive repopulation functional assay was adapted to evaluate the presence and relative quantity of functional HSCs after L-TBI. […]\nColony-Forming Cell (CFC) and Cobblestone Areas Forming Cell (CAFC): Assays were performed as previously described with a minor modifications^50. […] Colonies were scored after 10 days of incubation at 37° C. and 5% CO2. […] After 3 weeks of co-culture, CAFCs were scored as phase-dark hematopoietic clones of at least 5 cells beneath the stromal layer using an inverted microscope."}},
  "note": "Where a SMILES comes first, the peptide text is derived from it. [ ]: non-standard residue; d: D form. The star is where a group is joined. dPhe(4-NHCONH2) = NC(=O)Nc1ccc(C[C@@H](N)C(=O)O)cc1; Dihydroorotyl(S) = O=C1C[C@@H](C(=O)*)NC(=O)N1; dPhe(4-Cl) = N[C@H](Cc1ccc(Cl)cc1)C(=O)O; Phe(4-NH2) = Nc1ccc(C[C@H](N)C(=O)O)cc1; d2Nal = N[C@H](Cc1ccc2ccccc2c1)C(=O)O; Lys(iPr) = CC(C)NCCCC[C@H](N)C(=O)O; d3Pal = N[C@H](Cc1cccnc1)C(=O)O",
  "data": [
    {"smiles": "CC(=O)N[C@H](Cc1ccc2ccccc2c1)C(=O)N[C@H](Cc1ccc(Cl)cc1)C(=O)N[C@H](Cc1cccnc1)C(=O)N[C@@H](CO)C(=O)N[C@@H](Cc1ccc(NC(=O)[C@@H]2CC(=O)NC(=O)N2)cc1)C(=O)N[C@H](Cc1ccc(NC(N)=O)cc1)C(=O)N[C@@H](CC(C)C)C(=O)N[C@@H](CCCCNC(C)C)C(=O)N1CCC[C@H]1C(=O)N[C@H](C)C(N)=O", "note": "[LHRH-Ant, Degarelix] (Ac-[d2Nal][dPhe(4-Cl)][d3Pal]S[Phe(4-NH2)](Dihydroorotyl(S))[dPhe(4-NHCONH2)]L[Lys(iPr)]P[dA]-NH2)", "values": [
      {"measurement": "proportion of live LT-HSCs", "setting": "LT-HSCs [1]", "result": "significantly increased the proportion of live LT-HSCs"},
      {"measurement": "LT-HSCs in G0", "setting": "LT-HSCs [2]; Poly I:C model", "result": "retained significantly more LT-HSCs in G0"},
      {"measurement": "LT-HSCs in G0", "setting": "LT-HSCs [2]; SL-TBI model", "result": "retained significantly more LT-HSCs in G0"},
      {"measurement": "BFU-E colonies", "setting": "[3]", "result": "significant increase"},
      {"measurement": "CFU-GM colonies", "setting": "[3]", "result": "significant increase"}
    ]}
  ]
}
